Results as given in PubChem BioAssay (NCI).
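48-hour exposure; five concentrations; linearly interpolated endpoints. Abbreviation: GI50, concentration required for 50% inhibition of growth. TGI: total growth inhibition.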

Legend:
Test in all cases: inhibition of tumour cell growth, NCI panel, 48 h
[1] = tested on: SF-295 CNS
[2] = tested on: T-47D breast
[3] = tested on: UACC-257 melanoma
[4] = tested on: A498 renal
[5] = tested on: DU-145 prostate
[6] = tested on: UO-31 renal
[7] = tested on: KM12 colon
[8] = tested on: K-562 leukemia
[9] = tested on: BT-549 breast
[10] = tested on: HS 578T breast

Compound: COc1ccc2c(c1OC)CO[C@@H]2[C@H]1c2c(cc3c(c2OC)OCO3)CCN1S(=O)(=O)c1cn(C)cn1
- GI50 [1]: 1.18 µM
- TGI [1]: > 100 µM
- GI50 [2]: 16.9 µM
- TGI [2]: > 100 µM
- GI50 [3]: 9.43 µM
- TGI [3]: > 100 µM
- GI50 [4]: 0.588 µM
- TGI [4]: 9.75 µM
- GI50 [5]: 2.77 µM
- TGI [5]: 12 µM
- GI50 [6]: 5.2 µM
- TGI [6]: > 100 µM
- GI50 [7]: 0.684 µM
- TGI [7]: > 100 µM
- GI50 [8]: 0.413 µM
- TGI [8]: > 100 µM
- GI50 [9]: 2.87 µM
- TGI [9]: 84.8 µM

Compound: CCOC(=O)C(Cc1c[nH]c2cc([N+](=O)[O-])ccc12)NS(=O)(=O)c1ccc2ccccc2c1 (centres undefined)
- TGI [1]: 32.5 µM
- TGI [3]: 28.8 µM
- TGI [4]: 80 µM
- TGI [6]: 63.5 µM
- TGI [7]: 30.8 µM
- TGI [8]: 39.1 µM

Compound: c1ccc(C2OC3(CCC[C@H]4C[C@H]43)O[C@H]2c2ccccc2)cc1 (some centres undefined)
- TGI [1]: > 100 µM
- TGI [3]: 77.7 µM
- TGI [4]: > 100 µM
- TGI [6]: > 100 µM
- TGI [7]: > 100 µM
- TGI [8]: > 100 µM

Compound: CC1=C(SCCC(=O)OC(C[Se]C2=C(C)C(=O)c3ccccc3C2=O)C(=O)NCCCCCC(=O)OCc2ccccc2)C(=O)c2ccccc2C1=O (centres undefined)
- GI50 [1]: 2.49 µM
- TGI [1]: 8.7 µM
- GI50 [2]: 17.7 µM
- TGI [2]: 51.8 µM
- GI50 [10]: 7.6 µM
- TGI [10]: > 100 µM
- GI50 [3]: 3.46 µM
- TGI [3]: 10.1 µM
- GI50 [4]: 11.9 µM
- TGI [4]: > 100 µM
- GI50 [6]: 2.51 µM
- TGI [6]: 15.3 µM
- GI50 [7]: 1.4 µM
- TGI [7]: 4.07 µM
- GI50 [8]: 3.04 µM
- TGI [8]: > 100 µM
- GI50 [9]: 3.81 µM
- TGI [9]: 12.9 µM

Compound: NC(=O)c1cc([N+](=O)[O-])c(Cl)c([N+](=O)[O-])c1Cl
- GI50 [1]: 3.29 µM
- TGI [1]: 12.1 µM
- GI50 [10]: 1.98 µM
- TGI [10]: 4.98 µM
- GI50 [3]: 1.13 µM
- TGI [3]: 2.38 µM
- GI50 [4]: 1.9 µM
- TGI [4]: 4.58 µM
- GI50 [5]: 1.55 µM
- TGI [5]: 2.88 µM
- GI50 [6]: 1.58 µM
- TGI [6]: 3.48 µM
- GI50 [7]: 1.61 µM
- TGI [7]: 3.02 µM
- GI50 [9]: 3.41 µM
- TGI [9]: 12.6 µM

Compound: COC(=O)c1ccc(CN2C(=O)C(Cl)=C(Nc3cccc(Cl)c3C)C2=O)cc1
- GI50 [1]: 35.4 µM
- TGI [1]: > 100 µM
- GI50 [2]: > 100 µM
- TGI [2]: > 100 µM
- GI50 [10]: 21 µM
- TGI [10]: 95.5 µM
- GI50 [3]: 45.6 µM
- TGI [3]: > 100 µM
- GI50 [4]: 2.54 µM
- TGI [4]: 15.2 µM
- GI50 [5]: 29.1 µM
- TGI [5]: > 100 µM
- GI50 [6]: 15.1 µM
- TGI [6]: > 100 µM
- GI50 [7]: 4.03 µM
- TGI [7]: > 100 µM
- GI50 [8]: 4.32 µM
- TGI [8]: 21.1 µM

Compound: CN(c1ccc(C(=O)c2ccc(N(C)S(C)(=O)=O)cc2)cc1)S(C)(=O)=O
- TGI [1]: > 100 µM
- TGI [3]: > 100 µM
- TGI [4]: > 100 µM
- TGI [6]: > 100 µM
- TGI [7]: > 100 µM
- TGI [8]: > 100 µM

Compound: CCc1cccc(C)c1NC(=O)C(=O)CC(=O)c1ccc(Cl)s1
- TGI [1]: > 100 µM
- TGI [3]: > 100 µM
- TGI [4]: > 100 µM
- TGI [6]: > 100 µM
- TGI [7]: > 100 µM
- TGI [8]: > 100 µM

Compound: O=C(O)c1ccc(C2=Cc3cc(Cl)ccc3OC2)cc1
- TGI [1]: > 100 µM
- TGI [3]: > 100 µM
- TGI [4]: > 100 µM
- TGI [6]: > 100 µM
- TGI [7]: > 100 µM
- TGI [8]: > 100 µM

Compound: CC1/C(=N\O)CC(c2ccccc2)N(C)C1c1ccccc1 (centres undefined)
- TGI [1]: > 100 µM
- TGI [3]: > 100 µM
- TGI [4]: > 100 µM
- TGI [6]: > 100 µM
- TGI [7]: > 100 µM
- TGI [8]: > 100 µM

Compound: COC(=O)C1Cc2c(n(C)c3ccccc23)C(CCC(=O)O)N1Cc1ccccc1 (centres undefined)
- TGI [1]: 93.9 µM
- TGI [3]: > 100 µM
- TGI [4]: 76.5 µM
- TGI [6]: 51.4 µM
- TGI [7]: 81.4 µM
- TGI [8]: > 100 µM

Compound: Cc1csc2[n+]1-c1ccccc1N(C(=O)Nc1ccccc1)C(C)C2 (centres undefined)
- GI50 [1]: > 100 µM
- TGI [1]: > 100 µM
- GI50 [2]: > 100 µM
- TGI [2]: > 100 µM
- GI50 [10]: > 100 µM
- TGI [10]: > 100 µM
- GI50 [3]: > 100 µM
- TGI [3]: > 100 µM
- GI50 [6]: > 100 µM
- TGI [6]: > 100 µM
- GI50 [7]: > 100 µM
- TGI [7]: > 100 µM
- GI50 [8]: > 100 µM
- TGI [8]: > 100 µM
- GI50 [9]: > 100 µM
- TGI [9]: > 100 µM

Compound: C[N+](C)(C)CC(=O)N/N=C(/C(=O)Nc1ccc(Br)cc1)C1C(=O)NC(=O)NC1=O
- TGI [1]: > 100 µM
- TGI [3]: > 100 µM
- TGI [4]: > 100 µM
- TGI [6]: > 100 µM
- TGI [7]: > 100 µM
- TGI [8]: > 100 µM

Compound: O=C(CCCN1CCC(O)(c2ccc(Cl)cc2)CC1)c1ccc(F)cc1
- TGI [1]: 31.5 µM
- TGI [2]: > 100 µM
- TGI [10]: 65.9 µM
- TGI [3]: 46.7 µM
- TGI [5]: > 100 µM
- TGI [6]: 45.8 µM
- TGI [7]: 39.1 µM
- TGI [8]: > 100 µM
- TGI [9]: > 100 µM

Compound: O=C1CC(c2ccccc2)=Nc2ccccc2N1
- TGI [1]: > 100 µM
- TGI [3]: > 100 µM
- TGI [4]: > 100 µM
- TGI [6]: > 100 µM
- TGI [7]: > 100 µM
- TGI [8]: > 100 µM

Compound: COc1ccc(-c2nc(-c3ccc(C)cc3)cn3ccnc23)cc1
- GI50 [1]: 3.69 µM
- TGI [1]: > 50 µM
- GI50 [2]: > 50 µM
- TGI [2]: > 50 µM
- GI50 [10]: 20.4 µM
- TGI [10]: > 50 µM
- GI50 [3]: 9.54 µM
- TGI [3]: 25.8 µM
- GI50 [5]: 6.11 µM
- TGI [5]: > 50 µM
- GI50 [6]: 12 µM
- TGI [6]: > 50 µM
- GI50 [7]: 3.25 µM
- TGI [7]: > 50 µM
- GI50 [8]: 0.815 µM
- TGI [8]: 3.92 µM
- GI50 [9]: 26.4 µM
- TGI [9]: > 50 µM

Compound: O=C(O)[C@H](NS(=O)(=O)c1ccc(F)cc1)c1ccccc1
- TGI [1]: > 100 µM
- TGI [3]: > 100 µM
- TGI [6]: > 100 µM
- TGI [8]: > 100 µM

Compound: CCOC(=O)/C(=C/c1ccc(C(=O)OC)cc1)N(CC)CC
- TGI [3]: > 100 µM
- TGI [6]: > 100 µM
- TGI [7]: > 100 µM
- TGI [8]: 82.7 µM

Compound: CC1=C(/C=C/C(C)=C/C2CC(N(C)C)=CC(=O)O2)C(C)(C)CCC1 (centres undefined)
- TGI [1]: 26.1 µM
- TGI [3]: 24.9 µM
- TGI [4]: 29.2 µM
- TGI [6]: 22.7 µM
- TGI [7]: 31.2 µM
- TGI [8]: 19.9 µM

Compound: COc1cc(/C=C/C(=O)/C=C/c2ccc(-n3ccnc3C)cc2)ccc1O
- GI50 [1]: 24.6 µM
- TGI [1]: > 100 µM
- GI50 [2]: 3.12 µM
- TGI [2]: 15.1 µM
- GI50 [3]: 3.33 µM
- TGI [3]: 13.5 µM
- GI50 [4]: 10.4 µM
- TGI [4]: 23.7 µM
- GI50 [5]: 2.82 µM
- TGI [5]: 7.55 µM
- GI50 [6]: 1.51 µM
- TGI [6]: 3.15 µM
- GI50 [7]: 2.07 µM
- TGI [7]: 4.25 µM
- GI50 [8]: 3.32 µM
- TGI [8]: > 100 µM
- GI50 [9]: 1.97 µM
- TGI [9]: 4.82 µM

Compound: O=C(CSc1nc(-c2ccccc2)c(-c2ccccc2)[nH]1)N/N=C/c1ccc(O)cc1
- TGI [1]: 57.4 µM
- TGI [3]: > 100 µM
- TGI [6]: 93.2 µM
- TGI [7]: 55.4 µM
- TGI [8]: > 100 µM
